According to US8252308B2, “Feminine anti-itch gel” (C.B. Fleet Company Inc., priority 2005, dated 2012):
Structures can show the parent of a compound that is named as a salt.

Experiment: pH and solubility behaviour of the anesthetic in water
Type: physicochemical
Source text: In a preferred aspect, the pH modifier and the quantity of the pH modifier are selected to provide a pH to the composition of from 4 to 7, from 4.5 to 6.5, or more preferably from 5 to 5.3 when pramoxine serves as an anesthetic. In one aspect, the preferred pH for the gel is a pH value where the anesthetic is substantially present in its neutral state. For example, the hydrochloride salt of pramoxine has an acidic pH in water of about 4. However, at about pH 5 the pramoxine salt deprotonates to a neutral form that may provide increased transfer of the anesthetic into the vulvar tissues. Thus, a sufficient quantity of a base may be added to the gel as a pH modifier to provide the anesthetic in a substantially neutral form. However, at an upper pH value, such as about 5.2 for pramoxine, the anesthetic may precipitate out of the water phase, thus reducing the clarity of the gel. Thus, in a more preferred aspect, the pH modifier is chosen to provide a pH to the gel at which the majority of the anesthetic is present in its neutral state while remaining substantially solubilized.

Row | SMILES | water solubility | pH at which the salt deprotonates to a neutral form | upper pH value at which the anesthetic may precipitate out of the water phase | pH in water (hydrochloride salt in water)
1 | CCOC(=O)c1ccc(N)cc1 [benzocaine] | water insoluble |  |  | 
2 | CCCCOc1ccc(OCCCN2CCOCC2)cc1 [hydrochloride salt of pramoxine, pramoxine hydrochloride] |  | ~5 | about 5.2 | about 4
